Reference: patent US20020077356A1, “Nonsteroidal antiinflammatory agents” (priority 2000, published 2002)
Read-outs that look alike come from different tables or passages of the source.

Legend:
[1] = test system: tyrosinamino transferase (TAT); experiment: induction of tyrosinamino transferase (TAT) activity in liver homogenates; settings: liver homogenate 8 hours after administration, n-fold increase compared to untreated animals
Description: (§1) The activity of this enzyme can be determined photometrically from liver homogenates and represents a good yardstick of the undesirable metabolic actions of the glucocorticoids. To measure the TAT induction, the animals are sacrificed 8 hours after the test substances are administered, the livers are removed, and the TAT activity in the homogenate is measured.
(§2) As a parameter for the side effects of the steroid-induced catabolic metabolism, the activity of the enzyme tyrosinamino transferase (TAT) was determined from liver homogenates by photometry. The activity represents a good yardstick of the undesirable metabolic actions of the glucocorticoids. To measure the TAT induction, the animals are sacrificed 8 hours after the test substances are administered, the livers are removed, and the TAT activity in the homogenate is measured.

[2] = test system: croton oil-induced inflammation in rats and mice; experiment: croton oil-induced inflammation (ear edema); format: in vivo; settings: systemically two hours before croton oil, ear weight after 16-24 hours
Description: The antiinflammatory actions of the compounds of general formula I were tested in the animal experiment by testing in the croton oil-induced inflammation in rats and mice (J. Exp. Med. (1995), 182, 99-108). In this connection, croton oil in ethanolic solution was administered topically to the animals' ears. The test substances were also administered topically or systemically simultaneously with or two hours before the croton oil. After 16-24 hours, the ear weight was measured as a yardstick of the inflammatory edema, the peroxidase activity was measured as a yardstick of the invasions of granuloctyes, and the elastase activity was measured as a yardstick of the invasions of neutrophilic granuloctyes. In this test, the compounds of general formula I inhibit the three above-mentioned inflammation parameters both after topical administration and after systemic administration.
The antiinflammatory actions of the compounds of general formula I were tested in the animal experiment in the croton oil-induced inflammation in rats and mice (J. Exp. Med. (1995), 182, 99-108). In this respect, croton oil in an ethanolic solution was administered topically to the ears in the animals. The test substances were systemically administered two hours before the croton oil. After 16-24 hours, the ear weight was measured as a yardstick of the inflammatory edema.

[3] = test system: secretion of cytokine IL-8 in the human monocyte cell line THP-1; experiment: inhibition of LPS-triggered IL-8 secretion in THP-1 cells; format: cell-based; parameters: Inhibition of IL-8 Secretion Effectiveness: concentration or dose not given beside the values; settings: ELISA of supernatant
Description: The concentration of the cytokines was determined in the supernatant with use of commercially available ELISA kits.
The potency of the antiinflammatory action is determined in a cell test by the inhibition of the secretion of cytokine IL-8. […] The concentration of the cytokines was determined in the supernatant by means of commercially available ELISA kits. In this connection, the compounds of formula 1 show a high to very high potency and action in inhibition (see Table 10).

[4] = test system: tyrosinamino transferase (TAT); settings: in vivo
Description: as §1, §2

[5] = molecular target: T1, glucocorticoid receptor (GR) (Homo sapiens, UniProt P04150); experiment: glucocorticoid receptor (GR) binding test; settings: cytosol preparations of Sf9 cells infected with recombinant baculoviruses coding for the GR; 10 nM [3H]-dexamethasone
T1 construct: made in house; host or cells: Sf9 insect cells infected with recombinant baculovirus; cytosol preparation
T1 sequence (P04150 1-777): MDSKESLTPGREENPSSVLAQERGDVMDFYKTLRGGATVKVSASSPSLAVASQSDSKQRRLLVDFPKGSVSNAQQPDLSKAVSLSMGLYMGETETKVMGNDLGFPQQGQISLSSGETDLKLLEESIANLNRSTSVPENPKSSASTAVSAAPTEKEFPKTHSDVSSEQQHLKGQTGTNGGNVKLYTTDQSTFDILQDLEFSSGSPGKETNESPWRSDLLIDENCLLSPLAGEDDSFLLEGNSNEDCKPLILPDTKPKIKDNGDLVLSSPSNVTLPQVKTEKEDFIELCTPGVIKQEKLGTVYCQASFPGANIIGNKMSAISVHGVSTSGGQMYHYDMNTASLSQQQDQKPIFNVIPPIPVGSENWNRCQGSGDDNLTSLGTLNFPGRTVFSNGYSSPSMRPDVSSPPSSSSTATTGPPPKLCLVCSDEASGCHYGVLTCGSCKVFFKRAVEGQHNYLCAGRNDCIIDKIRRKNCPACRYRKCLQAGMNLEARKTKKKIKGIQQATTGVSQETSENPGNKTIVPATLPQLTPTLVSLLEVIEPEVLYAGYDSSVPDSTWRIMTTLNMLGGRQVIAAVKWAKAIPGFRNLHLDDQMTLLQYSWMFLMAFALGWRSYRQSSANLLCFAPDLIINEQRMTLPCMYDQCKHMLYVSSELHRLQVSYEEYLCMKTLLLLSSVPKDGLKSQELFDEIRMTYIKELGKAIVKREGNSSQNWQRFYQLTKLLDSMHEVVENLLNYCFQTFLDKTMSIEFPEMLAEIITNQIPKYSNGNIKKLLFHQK
From the text: The binding of substances to the glucocorticoid receptor (GR) is examined with the aid of a recombinantly produced receptor. Cytosol preparations of Sf9 cells, which had been infected with recombinant baculoviruses, which code for the GR, are used for the binding studies.

SMILES	Induction factor for TAT with 3 mg/kg ([1]; 3 mg/kg)	Induction factor for TAT with 30 mg/kg ([1]; 30 mg/kg)	IC50 ([3]; Homo sapiens) [nM]	Induction factor for TAT with 3 mg/kg [4]	Induction factor for TAT with 30 mg/kg [4]	IC50 [3] [nM]	IC50 [5] [nM]	Edema inhibition with 3 mg/kg [2] [%]	Edema inhibition with 30 mg/kg [2] [%]	Inhibition of IL-8 Secretion Effectiveness [3] [%]
C[C@]12C=CC(=O)C=C1CC[C@@H]1[C@@H]2[C@@H](O)C[C@@]2(C)[C@H]1CC[C@]2(O)C(=O)CO [Prednisolone, reference compound]	2.6	8.0	24					35	84	95
Cc1noc(=O)c2ccc(NC(=O)C(O)(CC3(c4ccccc4C(F)(F)F)CCC3)C(F)(F)F)cc12 (single isomer, unassigned; (+)) [Example 16, compound 26, (+)-6-[3-{1-(2-trifluoromethyl-phenyl)-cyclobutyl}-2-hydroxy-2-trifluoromethylpropionyl]-amino-4-methyl-2,3-benzoxazin-1-one]				1.4	3.7	4.3	16	11	81	77
Cc1noc(=O)c2ccc(NC(=O)C(O)(CC3(c4cc(F)ccc4C(F)(F)F)CCC3)C(F)(F)F)cc12 (single isomer, unassigned; (+)) [Example 16, compound 33, (+)-6-[3-{1-(5-fluoro-2-trifluoromethyl-phenyl)-cyclobutyl}-2-hydroxy-2-trifluoromethylpropionyl]-amino-4-methyl-2,3-benzoxazin-1-one]						30	1.1	77	86	45

Further lines, with some results ahead:

Induction factor for TAT with 3 mg/kg ([1]; 3 mg/kg)	Induction factor for TAT with 30 mg/kg ([1]; 30 mg/kg)	IC50 ([3]; Homo sapiens) [nM]	Induction factor for TAT with 3 mg/kg [4]	Induction factor for TAT with 30 mg/kg [4]	IC50 [3] [nM]	IC50 [5] [nM]	SMILES	Edema inhibition with 3 mg/kg [2] [%]	Edema inhibition with 30 mg/kg [2] [%]	Inhibition of IL-8 Secretion Effectiveness [3] [%]
			1.3	2.0	10	0.62	Cc1noc(=O)c2ccc(NC(=O)C(O)(CC3(c4cc(F)ccc4Cl)CCC3)C(F)(F)F)cc12 (single isomer, unassigned; (+)) [Example 16, compound 16, (+)-6-[3-{1-(2-chloro-5-fluorophenyl)-cyclobutyl}-2-hydroxy-2-trifluoromethyl-propionyl]-amino-4-methyl-2,3-benzoxazin-1-one]	54	78	80
					65	< 0.3	Cc1noc(=O)c2ccc(NC(=O)C(O)(CC(C)(C)c3ccc(F)cc3Cl)C(F)(F)F)cc12 (single isomer, unassigned; (+)) [Example 3, compound 9, (+)-6-[4-(2-chloro-4-fluoro-phenyl)-2-hydroxy-4-methyl-2-trifluoromethylvaleroyl]-amino-4-methyl-2,3-benzoxazin-1-one]	50	92	51
					9.6	< 0.3	Cc1noc(=O)c2ccc(NC(=O)C(O)(CC3(c4cc(F)ccc4Cl)CC3)C(F)(F)F)cc12 (single isomer, unassigned; (+)) [Example 16, compound 13, (+)-6-[3-{1-(2-chloro-5-fluorophenyl)-cyclopropyl}-2-hydroxy-2-trifluoromethyl-propionyl]-amino-4-methyl-2,3-benzoxazin-1-one]	47	106	58
